From US20260184807A1, “Methods for Treating Rheumatoid Arthritis Using a Syndecan-1 Inhibitor or Syntenin-1 Inhibitor” (The United States Government as represented by the …, priority 2022, published 2026)

What was measured:
HUVECs = assay: Metabolite quantification in Syntenin-1 treated HUVECs (colorimetric assay); type: cell-based, human; conditions: Syntenin-1 1000 ng/ml 24 h, HIF1αi 2 μM, mTORi 1 μM, FIGS. 13I-K
Procedure: HUVECs were treated with 20 Syntenin-1 (1000 ng/ml) for 0-60 mins to detect expression of GLUT1. HK2. PFK2, cMYC. HIF1α, and LDHA (FIG. 13B) or 0-48 h to detect HK2, PFK2, mTOR/RAPTOR and LDHA (FIG. 13C) and actin was visualized as equal loading, (n=3). HUVECs were treated with PBS or Syntenin-1 (1000 ng/ml) in the presence or absence of 2-DG (5 mM), cMYCi (50 μM) and/or mTORi (1 μM) or HIF1αi (2 μM) to quantify transcription of HIF1α (FIG. 13E, n=10), RAPTOR (FIG. 13F, n=7). TNF (FIG. 13H, n=5). […] HUVECs were treated with PBS or Syntenin-1 (1000 ng/ml) in the presence or absence of SDC-1 Ab (SDCab: 1:100). […] Data are presented as mean±SEM; significant differences were determined by the Mann-Whitney test, 2way ANOVA, or one-way ANOVA. *p<0.05. **p<0.01, ***p<0.001, ****p<0.0001.
FIGS. 20A-F show blood Syntenin-1 and SDC-1 relative levels are unaffected by RA therapy and glycolytic metabolites can modulate inflammatory factors and oxidative metabolites in Syntenin-1 reprogrammed endothelial cells. Relative expression of Syntenin-1 (FIG. 20A) or SDC-1 (FIG. 20B) was determined by RNAseq (Lewis M J, et al. Cell reports. 2019; 28:2455-2470 e2455) in blood from RA non-responsive (Non-R)(ΔDAS28≤0.6, n=16) or those with moderate (ΔDAS28≤1.2 & >0.6, n=22) or good response (ΔDAS28>1.2, n=21). […]
Metabolite quantification. […]

RA ST explants = assay: Rheumatoid arthritis explants stimulated with Syntenin-1 (qRT-PCR, ELISA); type: cell-based, human; conditions: Syntenin-1 5000 ng/ml 6-8 h, mTOR1i 1 μM
Procedure: FIGS. 19A-R show Syntenin1-induced metabolic activity fine-tunes transcription of angiogenic and inflammatory factors in RA ST explants. […] RA STs were stimulated with 1000 ng/ml Syntenin-1 for 6-8 h. Synovial tissues were harvested for transcriptome analysis by qRT-PCR and supernatants were used for protein quantification by ELISA. The transcription level of JAG1 (FIG. 19F), Notch1 (FIG. 19G), VEGF (FIG. 19H), VEGFR1 (FIG. 19I), and RAPTOR (FIG. 19J) was quantified by real-time RT-PCR, n=6-8. RA explants were untreated or stimulated with 5000 ng/ml Syntenin-1 in the presence or absence of SDC1-Ab (1:100), HIF1αi (2 μM), or mTOR1i (IμM) for 6-8 h. The transcription levels of RAPTOR (FIG. 19K, n=3), VEGF (FIG. 19L, n=5), IL-1β (FIG. 19M, n=8), CCL5 (FIG. 19N, n=6), IL-6 (FIG. 19O, n=6), IL-8 (FIG. 19P, n=6), CCL2 (FIG. 19Q, n=8) were evaluated by qRT-PCR or ELISA. […] Data are presented as mean±SEM: significant differences were determined by the Mann-Whitney test, 2way ANOVA, or one-way ANOVA. *p<0.05, **p<0.01, ***p<0.001, ****p<0.0001.
RheumatoidArthritis Explants. RA ST (30 mg) was cut into small pieces to allow proper access to stimuli and were starved o/n in 0% FBS RPMI with or without SDC1-Ab (1:100), mTOR1i (1 μM), and HIF1αi ([…]). […] Tissues were harvested for transcriptome analysis and supernatants were used for protein quantification by ELISA.

Q: `CO[C@H]1C[C@@H]2CC[C@@H](C)[C@@](O)(O2)C(=O)C(=O)N2CCCC[C@H]2C(=O)O[C@H]([C@H](C)C[C@@H]2CC[C@@H](OCCO)[C@H](OC)C2)CC(=O)[C@H](C)/C=C(\C)[C@@H](O)[C@@H](OC)C(=O)[C@H](C)C[C@H](C)/C=C/C=C/C=C/1C` [mTORi, Everolimus] was tested. Which “oxidative metabolites, AMPK, PGC-1a, and citrate” value (HUVECs) did it give?
A: unchanged

Q: And the “CCL2 transcription and TNF secretion” value (RA ST explants; FIGS. 19Q-R)?
A: intercepted

Q: And the “Syntenin-1-enriched RAPTOR expression” value (RA ST explants; HIF1αi 2 μM, FIG. 19K)?
A: suppressed
